Measurements as given in patent US20100099640A1, “TISSUE DEGENERATION PROTECTION” (priority 2007, published 2010).

Experiments:
[1] = tested on: RNA expression in white visceral (intra-abdominal) adipose tissue; experiment: Real-time RT-PCR of RNA expression in white visceral adipose tissue of treated DKO mice; type: in vivo, mouse
Description: (§1) Homozygous LDL-receptor-knockout mice (LDLR^(−/−)), heterozygous ob/+, and C57BL6 mice were purchased from Jackson Laboratory, Bar Harbor, Me. LDLR^(−/−) mice were backcrossed into a C57BL6 background to the 10th generation. To obtain DKO mice with combined leptin deficiency (ob/ob) and LDL-receptor deficiency, LDLR^(−/−) and ob/+ mice were crossed. All offspring were genotyped by polymerase chain reaction (PCR) techniques. All mice were housed at 22° C. on a fixed 12/12-hour light/dark cycle. Experimental procedures in animals were performed in accordance with protocols approved by the Institutional Animal Care and Research Advisory Committee. All mice were fed standard chow containing 4% fat (Pavan Service). Food intake was ≈5.7 g/d. Mice (about 50 g) were treated with stevioside (N=14; 10 mg/kg), steviol (N=9; 5 mg/kg) or placebo (N=17) for 12 weeks between 12 and 24 weeks of age. Stevioside (Molecular weight: 804) was dissolved in water (1 mg/ml) and 500 μl of the solution was administered orally. Steviol (Molecular weight: 318) was dissolved in water containing 6% NaHCO3 (1 mg/ml) and 250 μl of the solution was administered orally.
The level of RNA expression in extracts of white visceral (intra-abdominal) adipose tissue and aortic arch was measured by real-time reverse transcription (RT)-PCR. Total RNA was extracted with the Trizol reagent (InVitrogen) and purified on an RNeasy kit column (Qiagen). First-strand cDNA was generated from total RNA by RT using random primers from Takara and Superscript III reverse transcriptase (InVitrogen). Quantitative real-time PCR was performed using SybrGreen master mix according to the supplier protocols (Applied Biosystems).). Oligonucleotides (InVitrogen) used as forward primer (F) and reverse primer (R) were: for mouse PPARalpha: F: 5′-[…]-3′; R: 5′-[…]-3′; for mouse PPARgamma: F: 5′-[…]-3′; R: 5′-GTCAGCGGGTGGGACTTTC-3′; for mouse FABP4: F: 5′-AACTGGGCGTGGAATTCG-3′; R: 5′-[…]-3′; for mouse iNOS: F: 5′-[…]-3′; R: 5′-[…]-3′; for mouse GLUT-4: F: 5′-[…]-3′; R: 5′-[…]-3′; for mouse IRS-1: F: 5′-[…]-3′; R: 5′-CGCCTCGGGAAGAGACAGT-3′; for mouse IRS-2: F: 5′-[…]-3′: R: 5′-[…]-3′; for mouse LXRalpha: F: 5′-[…]-3′; R: 5′-[…]-3′; for mouse SOD1: F: 5′-[…]-3′; R: 5′-[…]-3′; for mouse SOD2: F: 5′-TCGGTGGCGTTGAGATTGT; R: 5′-[…]-3′; for mouse SOD3: F: 5′-[…]-3′; R: 5′-GCTGCCGGAAGAGAACCAA-3′; and for mouse β-actin (housekeeping gene), F: 5′-[…]-3′; R: 5′-[…]-3′. The level of mRNA expression was calculated using the threshold cycle (Ct) value, i.e., the number of PCR cycles at which the fluorescent signal during the PCR reaches a fixed threshold. For each sample, the Ct both for the gene of interest and for the housekeeping gene β-actin were determined to calculate ΔCt,sample (Ct,target gene−Ct,housekeeping gene), thus normalizing the data and correcting for differences in amount and/or quality between the different RNA samples. The expression levels were related to an external calibrator consisting of intra-abdominal adipose tissue from C57BL6 control mice. Subsequently, ΔΔCt (ΔCt,sample−ΔCt,calibrator) was determined, and the relative expression levels were calculated from 2^−ΔΔCt according to the manufacturer's instructions (Applied Biosystems). RNA expression levels are thus indicated as arbitrary units ±SD

[2] = tested on: atherosclerotic plaques of DKO mice; experiment: Atherosclerosis: morphometric and immunohistochemical analysis of aortic root cross sections of DKO mice; type: in vivo, mouse; conditions: stevioside 10 mg/kg or steviol 5 mg/kg orally, 12 weeks
Description: as §1
The extent of atherosclerosis was determined by analysis of cross sections from the aortic root. Approximately ten 7-μm frozen sections per staining per animal were used for morphometric and immunohistochemical analysis. Total plaque areas were measured on hematoxylin and eosin stained sections. Lipids were stained with oil-red O, and macrophage areas were stained with an antibody against mouse Mac-3 antigen (Pharmingen), and oxidized LDL with the monoclonal antibody 4E6. Blinded analysis of positive immunostained sections was performed with the Quantimet600 image analyzer (Leica).

[3] = tested on: healthy subjects; experiment: Stevioside 250 mg capsules thrice daily in healthy subjects; type: in vivo, human; conditions: 10 healthy subjects
Description: The present invention relates to the diterpenoic tetrahydropyran, steviol-19-glucuronide (a natural metabolite of stevioside) and other diterpenoic tetrahydropyran derivatives. […] However, oral administration of stevioside results in the surprising finding that it increases the expression and activity of PPARs, and that it exerts system biological effects to normalise lipid metabolism and to inhibit the formation atherosclerotic cardiovascular disease.

[4] = tested on: 3T3-L1 adipocytes; experiment: Triglyceride (Oil red O) accumulation during differentiation of 3T3-L1 adipocytes; type: cell-based, mouse
Description: 3T3-L1 mouse preadipocytes were purchased from the American Type Culture Collection (ATCC). They are cultivated in DHG medium (Dulbecco's modified Eagle's medium+High Glucose 4.5 g/l, GibcoBRL) supplemented with 10% FCS (foetal calf serum, GibcoBRL) and incubated a 37 C+5% CO2 incubator in a humidified atmosphere. For pre-adipocyte differentiation, 3T3-L1 cells were seeded at 50% confluence 3 days before the beginning of the differentiation programme. Confluent cell monolayers (day 0) are switched for 48 h to media containing the adipogenic cocktail: “DHG-L1” medium (DHG that contains 1.5 g/l NaHCO3) supplemented with 10% FCS, 5 μg/ml insulin, 300 μM dibutyryl-cyclicAMP (dbcAMP) and 1 μM dexamethasone. The cells were then refeeded every other day with DHG-L1 containing 10% FCS and 5 μg/ml insulin. At the end, 80-90% of cells were differentiated. […]
To characterize the state of (de)differentiation obtained in the presence of the molecules of interest, triglycerides present in the cells were stained with Oil red O (a dye of the neutral lipids). The absorbance of cell monolayers at 490 nm was measured in a spectrophotometer.

[5] = tested on: mouse pancreatic islets, β-cell line INS-1; conditions: direct action on β-cells; cited from earlier work
[6] = adipose tissue, stevioside 10 mg/kg orally, 12 weeks
[7] = adipose tissue, treatment with stevioside
[8] = time points 3 days after administration

## C=C1C[C@@]23CC[C@H]4C(C)(CCC[C@@]4(C)C(=O)O[C@@H]4O[C@H](CO)C(O)[C@H](O)C4O)[C@@H]2CCC1(OC1O[C@H](CO)C(O)C(O)C1OC1O[C@H](CO)C(O)[C@H](O)C1O)C3 (stereo in doubt) [stevioside, Kaur-16-en-18-oic acid, 13-[(2-O-b-D-glucopyranosyl-b-D-glucopyranosyl)oxy]-, b-D-glucopyranosyl ester, (4a)-]
[1]; adipose tissue of stevioside-treated mice
  LPL expression: not associated with a change
[1]; [6]
  expression of FABP-4: increased expression
  expression of GLUT-4: increased expression
  expression of IRS-1: increased expression
  expression of IRS-2: increased expression
  expression of LXRalpha: increased expression
  expression of PPARalpha: increased expression
  expression of PPARgamma: increased expression
  expression of the antioxidant SOD3: increased expression
[1]; [7]
  expression of CD36: increased expression
  expression of catalase: increased expression
  expression of the insulin receptor (INSR): increased expression
[2]
  lipid deposition in plaques: reducing
  macrophage deposition in plaques: reducing
  oxLDL deposition in plaques: reducing
  plaque volume: lowered
  smooth muscle cell (SMC)-to-macrophage ratio (proxy for plaque stability): increased
[3]
  24-hour urinary volume: not significantly different
  mean blood glucose, control vs stevioside condition: no significant difference
  mean insulin, control vs stevioside condition: no significant difference
  urinary excretion of electrolytes: not significantly different
[3]; [8]
  blood biochemical parameters, control vs stevioside condition: does not provide significant differences
  blood pressure, control vs stevioside condition: does not provide significant differences
[4]; 50-micromolar (lowest concentration), added during the 7-days differentiation process
  triglyceride accumulation in adipocytes: did not significantly reduce
[4]; 200-micromolar (4x higher concentration), added during differentiation, steviol dissolved with DMSO
  lipid deposition (triglyceride accumulation) in adipocytes: inhibited
[5]
  insulin secretion: stimulation of insulin secretion
